According to ChEMBL document CHEMBL1154241, “A QSAR study on relationship between structure of sulfonamides and their carbonic anhydrase inhibitory activity using the eigenvalue (EVA) method” (Eur J Med Chem, 2009):

Biological target: Carbonic anhydrase 2 (Homo sapiens) (UniProt P00918)
Description: Inhibition of carbonic anhydrase 2 assessed as inhibition of carbon dioxide hydration

logKi	SMILES
2.32	CS(=O)(=O)c1ccc(CC/N=C/c2ccccc2Cl)cc1
1.95	NS(=O)(=O)c1ccc(C/N=C/c2ccccc2Cl)cc1
2.23	COc1ccccc1/C=N/c1ccc(S(N)(=O)=O)cc1
2.08	COc1ccc(/C=N/Cc2ccc(S(N)(=O)=O)cc2)cc1
2.04	CC(=O)Nc1ccc(/C=N/Cc2ccc(S(N)(=O)=O)cc2)cc1
1.6	CC(=O)Nc1ccc(/C=N/CCc2ccc(S(C)(=O)=O)cc2)cc1
1.6	CS(=O)(=O)/N=C/C1=C(O)CCC=C1
2.48	NS(=O)(=O)c1ccc(C/N=C/c2ccccc2[N+](=O)[O-])cc1
2.04	CC(=O)Nc1ccc(/C=N/c2ccc(S(N)(=O)=O)cc2)cc1
2	COc1cc(/C=N/c2ccc(S(N)(=O)=O)cc2)ccc1C(C)=O
1.3	NS(=O)(=O)c1ccc(C/N=C/c2ccc([N+](=O)[O-])cc2)cc1 (stereo in doubt; 45)
2.15	NS(=O)(=O)c1ccc(C/N=C/c2ccc([N+](=O)[O-])cc2)cc1 (stereo in doubt; 60)
1.7	NS(=O)(=O)c1ccc(/N=C/c2ccc([N+](=O)[O-])cc2)cc1
2.25	NS(=O)(=O)c1ccc(/N=C/c2cccc([N+](=O)[O-])c2)cc1
1.7	NS(=O)(=O)c1ccc(/N=C/C=C/c2ccccc2)cc1
2.11	NS(=O)(=O)c1ccc(C/N=C/c2ccccc2O)cc1
2.46	NS(=O)(=O)c1ccc(/N=C/C2=C(Cl)CCC=C2)cc1
2.45	NS(=O)(=O)c1ccc(/N=C/c2ccc(Cl)cc2)cc1
